Experimental data: the NIST ThermoML archive (doi:10.1016/j.jct.2006.08.009)

Assay: mn = molality of the nth substance listed, in mol/kg
Conditions: 350 kPa, Liquid; for apparent molar heat capacity: Extra sensitive DSC

OCC(O)CO [glycerol] + O
Conditions	apparent molar heat capacity [J/K/mol]	mass density [kg/m3]
278.15 K, m1 = 0.02	210	1000.56
278.15 K, m1 = 0.05	208	1001.19
278.15 K, m1 = 0.1	208.3	1002.32
278.15 K, m1 = 0.2501	206.7	1005.96
278.15 K, m1 = 0.5002	206	1011.28
278.15 K, m1 = 1.001	203.2	1021.37
278.15 K, m1 = 2	200	1040.06
278.15 K, m1 = 3.003	192.1	1056.11
278.15 K, m1 = 4.999	196.4	1082.51
283.15 K, m1 = 0.02	220	1000.32
283.15 K, m1 = 0.05	219	1000.93
283.15 K, m1 = 0.1	219.7	1002.05
283.15 K, m1 = 0.2501	218.3	1005.34
283.15 K, m1 = 0.5002	217.4	1010.56
283.15 K, m1 = 1.001	215.1	1020.54
283.15 K, m1 = 2	212.1	1038.67
283.15 K, m1 = 3.003	206.8	1054.65
283.15 K, m1 = 4.999	207.4	1080.68
288.15 K, m1 = 0.02	229	999.7
288.15 K, m1 = 0.05	227	1000.3
288.15 K, m1 = 0.1	227.7	1001.41
288.15 K, m1 = 0.2501	226.4	1004.63
288.15 K, m1 = 0.5002	225.6	1009.79
288.15 K, m1 = 1.001	223.5	1019.64
288.15 K, m1 = 2	220.6	1037.48
288.15 K, m1 = 3.003	215.7	1053.13
288.15 K, m1 = 4.999	215.28	1078.92
293.15 K, m1 = 0.02	235	–
293.15 K, m1 = 0.05	233	–
293.15 K, m1 = 0.1	234	–
293.15 K, m1 = 0.2501	233	–
293.15 K, m1 = 0.5002	232.3	–
293.15 K, m1 = 1.001	230.4	–
293.15 K, m1 = 2	227.5	–
293.15 K, m1 = 3.003	222.75	–
293.15 K, m1 = 4.999	221.83	–
298.15 K, m1 = 0.02	240	997.59
298.15 K, m1 = 0.05	239	998.2
298.15 K, m1 = 0.1	239.7	999.29
298.15 K, m1 = 0.2501	238.6	1002.43
298.15 K, m1 = 0.5002	238	1007.48
298.15 K, m1 = 1.001	236.1	1017.07
298.15 K, m1 = 2	233.27	1034.46
298.15 K, m1 = 3.003	228.47	1049.73
298.15 K, m1 = 4.999	227.35	1074.96
303.15 K, m1 = 0.02	245	–
303.15 K, m1 = 0.05	244	–
303.15 K, m1 = 0.1	244.7	–
303.15 K, m1 = 0.2501	243.6	–
303.15 K, m1 = 0.5002	243	–
303.15 K, m1 = 1.001	241.1	–
303.15 K, m1 = 2	238.33	–
303.15 K, m1 = 3.003	233.46	–
303.15 K, m1 = 4.999	232.27	–
308.15 K, m1 = 0.02	249	994.55
308.15 K, m1 = 0.05	248.4	995.16
308.15 K, m1 = 0.1	249	996.23
308.15 K, m1 = 0.2501	247.9	999.33
308.15 K, m1 = 0.5002	247.4	1004.29
308.15 K, m1 = 1.001	245.5	1013.67
308.15 K, m1 = 2	242.76	1030.71
308.15 K, m1 = 3.003	237.83	1045.67
308.15 K, m1 = 4.999	236.6	1070.41
313.15 K, m1 = 0.02	253	–
313.15 K, m1 = 0.05	252.1	–
313.15 K, m1 = 0.1	252.9	–
313.15 K, m1 = 0.2501	251.9	–
313.15 K, m1 = 0.5002	251.3	–
313.15 K, m1 = 1.001	249.4	–
313.15 K, m1 = 2	246.75	–
313.15 K, m1 = 3.003	241.83	–
313.15 K, m1 = 4.999	240.56	–
318.15 K, m1 = 0.02	257	990.73
318.15 K, m1 = 0.05	255.7	991.32
318.15 K, m1 = 0.1	256.3	992.37
318.15 K, m1 = 0.2501	255.4	995.42
318.15 K, m1 = 0.5002	254.8	1000.34
318.15 K, m1 = 1.001	252.98	1009.55
318.15 K, m1 = 2	250.33	1026.3
318.15 K, m1 = 3.003	245.4	1041.09
318.15 K, m1 = 4.999	244.12	1065.4
323.15 K, m1 = 0.02	260	–
323.15 K, m1 = 0.05	258.8	–
323.15 K, m1 = 0.1	259.4	–
323.15 K, m1 = 0.2501	258.6	–
323.15 K, m1 = 0.5002	258	–
323.15 K, m1 = 1.001	256.23	–
323.15 K, m1 = 2	253.61	–
323.15 K, m1 = 3.003	248.72	–
323.15 K, m1 = 4.999	247.42	–
328.15 K, m1 = 0.02	263	986.19
328.15 K, m1 = 0.05	261.7	986.78
328.15 K, m1 = 0.1	262.3	987.77
328.15 K, m1 = 0.2501	261.5	990.83
328.15 K, m1 = 0.5002	261	995.67
328.15 K, m1 = 1.001	259.22	1004.79
328.15 K, m1 = 2	256.62	1021.31
328.15 K, m1 = 3.003	251.8	1035.9
328.15 K, m1 = 4.999	250.48	1059.9
333.15 K, m1 = 0.02	266	–
333.15 K, m1 = 0.05	264.5	–
333.15 K, m1 = 0.1	265	–
333.15 K, m1 = 0.2501	264.3	–
333.15 K, m1 = 0.5002	263.72	–
333.15 K, m1 = 1.001	262	–
333.15 K, m1 = 2	259.44	–
333.15 K, m1 = 3.003	254.69	–
333.15 K, m1 = 4.999	253.36	–
338.15 K, m1 = 0.02	268.5	981.05
338.15 K, m1 = 0.05	267	981.63
338.15 K, m1 = 0.1	267.6	982.65
338.15 K, m1 = 0.2501	266.8	985.63
338.15 K, m1 = 0.5002	266.28	990.4
338.15 K, m1 = 1.001	264.6	999.46
338.15 K, m1 = 2	262.07	1015.84
338.15 K, m1 = 3.003	257.43	1030.29
338.15 K, m1 = 4.999	256.04	1054
343.15 K, m1 = 0.02	270.6	–
343.15 K, m1 = 0.05	269.2	–
343.15 K, m1 = 0.1	269.8	–
343.15 K, m1 = 0.2501	269.15	–
343.15 K, m1 = 0.5002	268.63	–
343.15 K, m1 = 1.001	266.97	–
343.15 K, m1 = 2	264.48	–
343.15 K, m1 = 3.003	259.94	–
343.15 K, m1 = 4.999	258.51	–
348.15 K, m1 = 0.02	272.9	975.36
348.15 K, m1 = 0.05	271.3	975.93
348.15 K, m1 = 0.1	271.9	976.93
348.15 K, m1 = 0.2501	271.31	979.9
348.15 K, m1 = 0.5002	270.82	984.63
348.15 K, m1 = 1.001	269.16	993.59
348.15 K, m1 = 2	266.71	1009.84
348.15 K, m1 = 3.003	262.29	1024.18
348.15 K, m1 = 4.999	260.82	1047.69
353.15 K, m1 = 0.02	274.8	–
353.15 K, m1 = 0.05	273.1	–
353.15 K, m1 = 0.1	273.9	–
353.15 K, m1 = 0.2501	273.26	–
353.15 K, m1 = 0.5002	272.82	–
353.15 K, m1 = 1.001	271.17	–
353.15 K, m1 = 2	268.75	–
353.15 K, m1 = 3.003	264.53	–
353.15 K, m1 = 4.999	262.96	–
358.15 K, m1 = 0.02	276.3	969.12
358.15 K, m1 = 0.05	274.7	969.7
358.15 K, m1 = 0.1	275.6	970.69
358.15 K, m1 = 0.2501	274.92	973.64
358.15 K, m1 = 0.5002	274.47	978.33
358.15 K, m1 = 1.001	272.82	987.24
358.15 K, m1 = 2	270.44	1003.38
358.15 K, m1 = 3.003	266.6	1017.63
358.15 K, m1 = 4.999	264.75	1041.02
363.15 K, m1 = 0.02	277.1	–
363.15 K, m1 = 0.05	275.5	–
363.15 K, m1 = 0.1	276.5	–
363.15 K, m1 = 0.2501	275.65	–
363.15 K, m1 = 0.5002	275.17	–
363.15 K, m1 = 1.001	273.45	–
363.15 K, m1 = 2	271.04	–
363.15 K, m1 = 3.003	268.61	–
363.15 K, m1 = 4.999	265.49	–
368.15 K, m1 = 0.02	–	962.42
368.15 K, m1 = 0.05	–	963
368.15 K, m1 = 0.1	–	963.94
368.15 K, m1 = 0.2501	–	966.88
368.15 K, m1 = 0.5002	–	971.55
368.15 K, m1 = 1.001	–	980.42
368.15 K, m1 = 2	–	996.47
368.15 K, m1 = 3.003	–	1010.68
368.15 K, m1 = 4.999	–	1033.93
